Measurements taken from ChEMBL document CHEMBL1201862, “PubChem BioAssay data set” (2004).
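All cell lines were grown in 96-well plates and treated with compound for 48 hours. Here, GI50 denotes the concentration required for 50% inhibition of growth.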 The source made the active and inactive calls. Cut-off read from the data, not from the text of the source: active = GI50 up to about 1.1 µM and inactive = higher.

Legend:
Assay in all cases: DTP human tumour cell line panel, 48 h
CAKI-1 = tested on: CAKI-1
CCRF-CEM = tested on: CCRF-CEM
COLO 205 = tested on: COLO 205
Hs-578T = tested on: Hs-578T
K562 = tested on: K562
KM12 = tested on: KM12
M14 = tested on: M14
Malme-3M = tested on: Malme-3M
NCI/ADR-RES = tested on: NCI/ADR-RES
OVCAR-4 = tested on: OVCAR-4
SK-MEL-28 = tested on: SK-MEL-28
SK-MEL-5 = tested on: SK-MEL-5
SK-OV-3 = tested on: SK-OV-3
SW-620 = tested on: SW-620
TK-10 = tested on: TK-10
U-251 = tested on: U-251
UACC-62 = tested on: UACC-62
UO-31 = tested on: UO-31
OVCAR-8 = tested on: OVCAR-8
UACC-257 = tested on: UACC-257

SMILES: COc1cccc2c1C(=N)c1c(O)c3c(c(O)c1C2=O)C[C@@](O)(C(C)=O)C[C@@H]3OC1CC(N)C(O)C(C)O1 (stereo partly drawn)
- GI50 (CAKI-1): 0.141 µM (active)
- GI50 (CCRF-CEM): 0.0001 µM (active)
- GI50 (COLO 205): 0.394 µM (active)
- GI50 (Hs-578T): 0.00123 µM (active)
- GI50 (K562): 0.000159 µM (active)
- GI50 (KM12): 0.313 µM (active)
- GI50 (M14): 0.00957 µM (active)
- GI50 (Malme-3M): 0.000721 µM (active)
- GI50 (NCI/ADR-RES): 0.000159 µM (active)
- GI50 (OVCAR-4): 1.83 µM (inactive)
- GI50 (SK-MEL-28): 2.3 µM (inactive)
- GI50 (SK-MEL-5): 0.196 µM (active)
- GI50 (SK-OV-3): 0.43 µM (active)
- GI50 (SW-620): 0.199 µM (active)
- GI50 (TK-10): 1.31 µM (inactive)
- GI50 (U-251): 0.000228 µM (active)
- GI50 (UACC-62): 0.0094 µM (active)
- GI50 (UO-31): 0.00369 µM (active)

SMILES: O=c1[nH]c(=O)n(C2CC(O)C(CO)O2)c2nc3ccc4ccccc4c3nc12 (stereo not drawn)
- GI50 (CAKI-1): > 100 µM (inactive)
- GI50 (CCRF-CEM): 34.2 µM (inactive)
- GI50 (COLO 205): 64.9 µM (inactive)
- GI50 (Hs-578T): 55.5 µM (inactive)
- GI50 (K562): 45.2 µM (inactive)
- GI50 (KM12): > 100 µM (inactive)
- GI50 (M14): > 100 µM (inactive)
- GI50 (Malme-3M): > 100 µM (inactive)
- GI50 (NCI/ADR-RES): > 100 µM (inactive)
- GI50 (OVCAR-4): 67.9 µM (inactive)
- GI50 (OVCAR-8): 79.1 µM (inactive)
- GI50 (SK-MEL-28): 94.2 µM (inactive)
- GI50 (SK-MEL-5): 54.1 µM (inactive)
- GI50 (SK-OV-3): > 100 µM (inactive)
- GI50 (SW-620): 99.8 µM (inactive)
- GI50 (TK-10): > 100 µM (inactive)
- GI50 (U-251): 33.7 µM (inactive)
- GI50 (UACC-257): > 100 µM (inactive)
- GI50 (UACC-62): 56.9 µM (inactive)
- GI50 (UO-31): > 100 µM (inactive)

SMILES: CN(C)/C=N\c1cccc2c1NSN2
- GI50 (CAKI-1): > 100 µM (inactive)
- GI50 (CCRF-CEM): > 100 µM (inactive)
- GI50 (COLO 205): > 100 µM (inactive)
- GI50 (Hs-578T): > 100 µM (inactive)
- GI50 (K562): > 100 µM (inactive)
- GI50 (KM12): > 100 µM (inactive)
- GI50 (M14): > 100 µM (inactive)
- GI50 (Malme-3M): > 100 µM (inactive)
- GI50 (NCI/ADR-RES): > 100 µM (inactive)
- GI50 (OVCAR-4): > 100 µM (inactive)
- GI50 (OVCAR-8): > 100 µM (inactive)
- GI50 (SK-MEL-28): > 100 µM (inactive)
- GI50 (SK-MEL-5): > 100 µM (inactive)
- GI50 (SK-OV-3): > 100 µM (inactive)
- GI50 (SW-620): > 100 µM (inactive)
- GI50 (TK-10): > 100 µM (inactive)
- GI50 (U-251): > 100 µM (inactive)
- GI50 (UACC-257): > 100 µM (inactive)
- GI50 (UACC-62): > 100 µM (inactive)
- GI50 (UO-31): > 100 µM (inactive)

SMILES: N#CC(NCCc1ccccc1)c1ccc(C(C#N)NCCc2ccccc2)cc1 (stereo not drawn)
- GI50 (CAKI-1): > 100 µM (inactive)
- GI50 (CCRF-CEM): 17.9 µM (inactive)
- GI50 (COLO 205): 48 µM (inactive)
- GI50 (Hs-578T): 71.8 µM (inactive)
- GI50 (K562): 24.2 µM (inactive)
- GI50 (KM12): > 100 µM (inactive)
- GI50 (M14): 70.6 µM (inactive)
- GI50 (Malme-3M): > 100 µM (inactive)
- GI50 (NCI/ADR-RES): 24.3 µM (inactive)
- GI50 (OVCAR-4): > 100 µM (inactive)
- GI50 (OVCAR-8): 73.6 µM (inactive)
- GI50 (SK-MEL-28): 48.5 µM (inactive)
- GI50 (SK-MEL-5): 32.1 µM (inactive)
- GI50 (SK-OV-3): > 100 µM (inactive)
- GI50 (SW-620): 32.8 µM (inactive)
- GI50 (TK-10): > 100 µM (inactive)
- GI50 (U-251): 8.17 µM (inactive)
- GI50 (UACC-257): > 100 µM (inactive)
- GI50 (UACC-62): > 100 µM (inactive)
- GI50 (UO-31): 93.1 µM (inactive)

SMILES: Nc1nc2c(ncn2C2C=CC(COS(N)(=O)=O)C2)c(=O)[nH]1 (stereo not drawn)
- GI50 (CAKI-1): > 100 µM (inactive)
- GI50 (CCRF-CEM): > 100 µM (inactive)
- GI50 (COLO 205): > 100 µM (inactive)
- GI50 (Hs-578T): > 100 µM (inactive)
- GI50 (K562): > 100 µM (inactive)
- GI50 (KM12): > 100 µM (inactive)
- GI50 (M14): > 100 µM (inactive)
- GI50 (Malme-3M): > 100 µM (inactive)
- GI50 (NCI/ADR-RES): > 100 µM (inactive)
- GI50 (OVCAR-4): > 100 µM (inactive)
- GI50 (OVCAR-8): > 100 µM (inactive)
- GI50 (SK-MEL-28): > 100 µM (inactive)
- GI50 (SK-MEL-5): > 100 µM (inactive)
- GI50 (SK-OV-3): > 100 µM (inactive)
- GI50 (SW-620): > 100 µM (inactive)
- GI50 (TK-10): > 100 µM (inactive)
- GI50 (U-251): > 100 µM (inactive)
- GI50 (UACC-257): > 100 µM (inactive)
- GI50 (UACC-62): > 100 µM (inactive)
- GI50 (UO-31): > 100 µM (inactive)
